Reference: ChEMBL document CHEMBL3507680, “University of Dundee, Gates Library screen for HepG2 cell viability”

Experiment: Human HepG2 cell viability assay in 384 well format
Format: toxicity, cell-based
Set-up: dose 125 nL, time 70.5 hour; concentration not given beside the values
Details: HepG2 cells, read-out: Inhibition
`COc1ccc(OCC(=O)n2nc(C)c(C)c2C)cc1` gave a cytotoxicity at 70.5 h of 3.85%.
In the case of `CCn1nc(C)c2ccn(CC(=O)NC(C)C)c(=O)c21`, the cytotoxicity at 70.5 h is reported as -2.74%.
`CCCN(c1ccccc1C(=O)O)S(=O)(=O)c1ccc2ccccc2c1` gave a cytotoxicity at 70.5 h of -6.16%.
For `CCc1n[nH]c(SCC(=O)N2CCc3[nH]nc(C4CCC4)c3C2)n1`, the cytotoxicity at 70.5 h was -0.161%.
Compound `Cc1ccc(C(=O)NC2CCN(C(=O)Nc3ccccn3)CC2)s1` has a cytotoxicity at 70.5 h of 11.7%.
In the case of `O=C(O)c1ccnc(-c2ccnc(NCCc3cscn3)n2)c1`, the cytotoxicity at 70.5 h is reported as -2.9%.
`Cc1nc(C)n(CC2CCCN(c3ncnc4c3CCC4)C2)n1` (stereo unspecified) showed a cytotoxicity at 70.5 h of 26.1%.
With `CCOCn1cc(NC(=O)C2CCN(S(C)(=O)=O)CC2)cn1` the cytotoxicity at 70.5 h was -2.16%.
`Cn1cc(CN2CCc3ccc(=O)n(Cc4ccncc4)c3CC2)cn1` gave a cytotoxicity at 70.5 h of -7%.
Compound `CC(C)NC(=O)C1CN(C(=O)c2ccccc2)CC12CCOCC2` (stereo unspecified) has a cytotoxicity at 70.5 h of -5.57%.
Compound `CC(=O)c1cc(CN2C[C@@H](C(=O)O)[C@H](c3cccnc3)C2)cs1` has a cytotoxicity at 70.5 h of -7.32%.
Work on `Cc1nc[nH]c1CN1CCCn2nc(CN3CCC(F)(F)CC3)cc2C1` yielded a cytotoxicity at 70.5 h of -9.44%.
For `Cc1occc1C(=O)N1CCCN(Cc2nccn2C(C)C)CC1`, the cytotoxicity at 70.5 h was 20.3%.
`CCN1CCC2(CC1)CC(NCc1ccncc1)c1ccccc1O2` (stereo unspecified) showed a cytotoxicity at 70.5 h of -20.8%.
`Cc1c(CN2CCc3nc4sccc4c(=O)n3CC2)cnn1C` showed a cytotoxicity at 70.5 h of -6.65%.
`CCn1cc(S(=O)(=O)NC2CCCC2)cn1` showed a cytotoxicity at 70.5 h of -11.8%.
`COc1cccc(N2CCN(CCC(=O)NC3CCCC3)CC2)c1` showed a cytotoxicity at 70.5 h of -5.97%.
For `Cc1c(F)cccc1S(=O)(=O)NC(C)(C)CN`, the cytotoxicity at 70.5 h was -3.29%.
Work on `Cc1ccc([C@]2(O)CC[C@H]3CN(Cc4cccc(Cl)c4Cl)C[C@H]32)nc1` yielded a cytotoxicity at 70.5 h of 22.9%.
Compound `CCCc1nc(CN(C)CCOc2ccccc2)cs1` has a cytotoxicity at 70.5 h of -8.59%.
`CC1=C(CCN2CC[C@@H](N3CCC(O)CC3)[C@H](O)C2)C(C)(C)CCC1` gave a cytotoxicity at 70.5 h of -5.02%.
Work on `CCC(NC(=O)NCc1nncn1CC)c1ccc(OC)cc1` (stereo unspecified) yielded a cytotoxicity at 70.5 h of -9.27%.
`O=S1(=O)C[C@@H]2[C@H](C1)N(Cc1ncc[nH]1)CCN2Cc1cccnc1` showed a cytotoxicity at 70.5 h of -3.77%.
For `Cc1nc(CN2CCCC2c2ccsc2)nc2ccccc12` (stereo unspecified), the cytotoxicity at 70.5 h was 4.71%.
`Cc1cc(C(F)(F)F)nn1CCCNC(=O)C1CCCO1` (stereo unspecified) showed a cytotoxicity at 70.5 h of 16.3%.
Compound `CN(CCC#N)C(=O)CN1CCCC1c1cccs1` (stereo unspecified) has a cytotoxicity at 70.5 h of -4.47%.
Work on `CCCc1cncnc1N1CCC2(CCC(=O)N(CCCO)C2)CC1` yielded a cytotoxicity at 70.5 h of -10.1%.
`N#CC1(C(=O)NCc2ccc(F)cc2)CCCC1` showed a cytotoxicity at 70.5 h of 3.1%.
`CC(C)(C)OCC1CN(CC2CC2)S(=O)(=O)c2cnccc2O1` (stereo unspecified) showed a cytotoxicity at 70.5 h of -4.79%.
In the case of `Cc1cc(C)c2[nH]c(C(=O)NCCN3CCCC3=O)c(C)c2c1`, the cytotoxicity at 70.5 h is reported as 23.6%.
In the case of `Cc1cnn(CCNCc2c(C)nn(C)c2Cl)c1`, the cytotoxicity at 70.5 h is reported as -4.35%.
With `COC(=O)c1ccccc1C(=O)N(CCN(C)C)Cc1sccc1C` the cytotoxicity at 70.5 h was -7.74%.
With `CC(C)(C)c1csc(CNC(=O)C2NCCc3[nH]cnc32)n1` (stereo unspecified) the cytotoxicity at 70.5 h was -9.53%.
For `Cc1cc(CN2CCN(CC3CC3)[C@@H]3CS(=O)(=O)C[C@@H]32)cc(C)c1O`, the cytotoxicity at 70.5 h was -2.43%.
`CSc1nnc(C2CCN(C(=O)N3CCOCC3)CC2)n1C(C)C` gave a cytotoxicity at 70.5 h of 7.97%.
`CC(=O)N(Cc1ncc(C)o1)C1CCN(Cc2ccccc2C#N)C1` (stereo unspecified) showed a cytotoxicity at 70.5 h of -3.02%.
`COc1cccc(-c2n[nH]cc2C(=O)NC(C)c2n[nH]c(C)n2)c1` (stereo unspecified) showed a cytotoxicity at 70.5 h of 13.9%.
Compound `CCCN(CCc1ccccn1)C(=O)Cn1cnnn1` has a cytotoxicity at 70.5 h of -23.7%.
Compound `N#Cc1c(Cl)nsc1NCc1ccc(N2CCCC(C(N)=O)C2)cc1` (stereo unspecified) has a cytotoxicity at 70.5 h of -2.18%.
Compound `CSCc1noc(CN2CC(Cc3ccccc3)CC2=O)n1` (stereo unspecified) has a cytotoxicity at 70.5 h of -13%.
`CCc1ccc(CNc2ccccc2CN2CCC(O)CC2)o1` gave a cytotoxicity at 70.5 h of -9.23%.
With `COc1ccc(CN2Cc3nnn(C)c3C(COCCN(C)C)C2)cc1` (stereo unspecified) the cytotoxicity at 70.5 h was 4.07%.
With `C[C@@H]1CN(C2CCN(Cc3cnc(-c4cccs4)nc3)CC2)C[C@H](C)O1` the cytotoxicity at 70.5 h was 1.06%.
With `CC(C)S(=O)(=O)N1C[C@@H](c2ccccc2)[C@H]2[C@H]1CCCCCN2C` the cytotoxicity at 70.5 h was -5.45%.
In the case of `CNc1ccnc(NCCSc2nccn2C)n1`, the cytotoxicity at 70.5 h is reported as -1.64%.
In the case of `O=C(CSCC1CC1)N1CCCN(Cc2ccc(F)cc2)CC1`, the cytotoxicity at 70.5 h is reported as -11.1%.
In the case of `CSCc1noc(-c2nc3c([nH]2)CCCNC3=O)n1`, the cytotoxicity at 70.5 h is reported as -4.67%.
With `CCS(=O)(=O)c1ccc(N2CCC(NC(=O)C3CCCCC3)CC2)cc1` the cytotoxicity at 70.5 h was 0.314%.
For `O=C1NCC2(CCCN(Cc3ccncc3)C2)Oc2ccccc21` (stereo unspecified), the cytotoxicity at 70.5 h was -8.47%.
`CNC(=O)[C@@H](c1ccccc1)N1CCC[C@H]1C(=O)NCc1ccccn1` showed a cytotoxicity at 70.5 h of -6.43%.
Work on `Cc1nc(CC(=O)N2CCc3nnc(N(C)C)cc3C2)cs1` yielded a cytotoxicity at 70.5 h of 0.153%.
With `CC(NC(N)=O)C(=O)N(C)Cc1cccc(C(F)(F)F)c1` (stereo unspecified) the cytotoxicity at 70.5 h was 10.7%.
`Cc1ccc(OCc2ccc(C(=O)O)s2)cc1C` showed a cytotoxicity at 70.5 h of -6.36%.
`Cc1nc(CN2CCC(Oc3ccc(F)cc3C)(C(=O)O)CC2)co1` showed a cytotoxicity at 70.5 h of -2.54%.
`CC(C)Cc1nc(CN2CCN(CC(O)c3ccccc3)CC2)no1` (stereo unspecified) gave a cytotoxicity at 70.5 h of -3.23%.
With `Cn1ncc2c(NCC3CCS(=O)(=O)C3)nc(-c3ccncc3)nc21` (stereo unspecified) the cytotoxicity at 70.5 h was 21.3%.
In the case of `Cc1ccc(C2CSCCN2C(=O)c2ccnc(N(C)C)c2)o1` (stereo unspecified), the cytotoxicity at 70.5 h is reported as 18.6%.
In the case of `Cc1ccc(C(=O)N2CC[C@@]3(O)CCN(C(=O)N(C)C)C[C@H]3C2)cc1Cl`, the cytotoxicity at 70.5 h is reported as -8.07%.
Work on `CCN(CC(C)C#N)C(=O)CNc1ccc(F)c(C)c1` (stereo unspecified) yielded a cytotoxicity at 70.5 h of 0.826%.
For `COc1c(F)cc(NC(=O)NCc2nncn2C2CC2)cc1F`, the cytotoxicity at 70.5 h was 0.912%.
`COCc1nc(C2CC2)nn1-c1cccc(F)c1` showed a cytotoxicity at 70.5 h of -7.42%.
In the case of `CCOC(=O)c1sc(NC(=O)c2cc(=O)c(OC)c[nH]2)nc1C`, the cytotoxicity at 70.5 h is reported as -8.8%.
Work on `COC(=O)C1(NCC(=O)Nc2cc(C)ccc2OC)CCCCC1` yielded a cytotoxicity at 70.5 h of 2.15%.
For `Cc1nc(N(C)C)ncc1C(=O)N[C@H]1Cc2ccccc2[C@@H]1N`, the cytotoxicity at 70.5 h was -5.1%.
In the case of `CN(C)C[C@@H]1OC[C@H]2CN(Cc3ccoc3)CC[C@H]21`, the cytotoxicity at 70.5 h is reported as -0.512%.
In the case of `COCCN(C)C(=O)Cn1cccc(OC)c1=O`, the cytotoxicity at 70.5 h is reported as -9.38%.
With `CCSc1cc(C(=O)NCc2ccccc2O)ccn1` the cytotoxicity at 70.5 h was -4.36%.
Compound `N#Cc1cccc(C(=O)N2CC(c3nc(-c4ccc[nH]c4=O)no3)C2)c1` has a cytotoxicity at 70.5 h of -1.92%.
Work on `O=C(NC1CCc2c(ccc(=O)n2CC2CC2)C1)c1cscn1` (stereo unspecified) yielded a cytotoxicity at 70.5 h of 18.1%.
Work on `Cc1cc(=O)n(C)cc1NC(=O)Cc1ccc(C(F)(F)F)cc1` yielded a cytotoxicity at 70.5 h of 0.135%.
Work on `O=C(Cc1ccon1)N(CCC(F)(F)F)C1CCCC1` yielded a cytotoxicity at 70.5 h of -3.19%.
With `CC(NCC(=O)NCC(=O)Nc1ccc(F)cc1)c1cccs1` (stereo unspecified) the cytotoxicity at 70.5 h was -17.8%.
Work on `Cc1ccc(OC2CCN(CCn3cncn3)CC2)cc1` yielded a cytotoxicity at 70.5 h of -10.7%.
Work on `Cc1ccc(C(=O)N2CCCS2(=O)=O)cc1Cl` yielded a cytotoxicity at 70.5 h of -19.9%.
Compound `CCS(=O)(=O)N1CC[C@H]2O[C@H](c3nnc(C)o3)CC[C@H]21` has a cytotoxicity at 70.5 h of -13.4%.
`CCN(C)c1ncnc2c1CCN(C(=O)c1ccoc1C)CC2` showed a cytotoxicity at 70.5 h of -10.9%.
Compound `CC(C)NC(=O)CNC(=O)c1csc(Cc2ccccc2F)n1` has a cytotoxicity at 70.5 h of -4.54%.
For `O=C(c1ccc[nH]1)N1CCc2ccc(S(=O)(=O)N3CCOCC3)cc2C1`, the cytotoxicity at 70.5 h was 3.25%.
`O=S(=O)(NCCc1cn2ccccc2n1)N1CCOCC1` showed a cytotoxicity at 70.5 h of -7.24%.
`CCc1cnc(CNC(=O)N2CCCC(c3ncc[nH]3)C2)s1` (stereo unspecified) gave a cytotoxicity at 70.5 h of -4.75%.
In the case of `CN1Cc2[nH]nc(COCC3CC3)c2C1`, the cytotoxicity at 70.5 h is reported as -11.3%.
